Results from ChEMBL document CHEMBL4017441, “Mitigating the inhibition of human bile salt export pump by drugs: opportunities provided by physicochemical property modulation, in silico modeling, and structural modification” (Drug Metab Dispos, 2012).
pIC50: −log10 of the molar value. Where a name gives a salt, the structure may show the parent alone.

Target: Bile salt export pump (Homo sapiens, UniProt O95342)
Assay type: ADME

COc1ccccc1N1CCN(CC(O)COc2cccc3ccccc23)CC1 (configuration not stated) [NAFTOPIDIL]
pIC50: > 5.00

C=CCN1CC[C@]23c4c5ccc(O)c4O[C@H]2C(=O)CC[C@@]3(O)[C@H]1C5 [NALOXONE]
pIC50: 3.26

O=C1CC[C@@]2(O)[C@H]3Cc4ccc(O)c5c4[C@@]2(CCN3CC2CC2)[C@H]1O5 [NALTREXONE]
pIC50: < 3.00

c1ccc2c(CC3=NCCN3)cccc2c1 [NAPHAZOLINE]
pIC50: < 3.00

COc1ccc2cc([C@H](C)C(=O)O)ccc2c1 [NAPROXEN]
pIC50: < 3.00

CC[C@@H](Nc1c(Nc2cccc(C(=O)N(C)C)c2O)c(=O)c1=O)c1ccc(C)o1 [NAVARIXIN ANHYDROUS]
pIC50: > 5.00

CCCc1c2oc(C(=O)O)cc(=O)c2cc2c(=O)cc(C(=O)O)n(CC)c12 [NEDOCROMIL]
pIC50: < 3.00

CCc1nn(CCCN2CCN(c3cccc(Cl)c3)CC2)c(=O)n1CCOc1ccccc1 [NEFAZODONE]
pIC50: > 5.00

O=c1ncn2nc(Sc3ccc(F)cc3F)ccc2c1-c1c(Cl)cccc1Cl [NEFLAMAPIMOD]
pIC50: > 5.00

CN(C)C(=O)Oc1cccc([N+](C)(C)C)c1 [NEOSTIGMINE]
pIC50: < 3.00

Cc1ccnc2c1NC(=O)c1cccnc1N2C1CC1 [NEVIRAPINE]
pIC50: 3.53

COC(=O)C1=C(C)NC(C)=C(C(=O)OCCN(C)Cc2ccccc2)C1c1cccc([N+](=O)[O-])c1 (configuration not stated) [NICARDIPINE]
pIC50: > 5.00

CN1CCC[C@H]1c1cccnc1 [NICOTINE]
pIC50: < 3.00

COC(=O)C1=C(C)NC(C)=C(C(=O)OC)C1c1ccccc1[N+](=O)[O-] [NIFEDIPINE]
pIC50: 4.73

COC(=O)C1=C(C#N)NC(C)=C(C(=O)OC(C)C)C1c1cccc([N+](=O)[O-])c1 (configuration not stated) [NILVADIPINE]
pIC50: > 5.00

NC(=O)c1cc([N+](=O)[O-])cc([N+](=O)[O-])c1 [NITROMIDE]
pIC50: 3.73

CC(CCc1ccccc1)NC(C)C(O)c1ccc(O)cc1 (configuration not stated) [NYLIDRIN]
pIC50: 3.55

CC1COc2c(N3CCN(C)CC3)c(F)cc3c(=O)c(C(=O)O)cn1c23 (configuration not stated) [OFLOXACIN]
pIC50: < 3.00

Cc1ccccc1C(OCCN(C)C)c1ccccc1 (configuration not stated) [ORPHENADRINE]
pIC50: < 3.00

C[C@@H]1O[C@@H](O[C@H]2C[C@@H](O)[C@]3(CO)[C@H]4[C@H](O)C[C@]5(C)[C@@H](C6=CC(=O)OC6)CC[C@]5(O)[C@@H]4CC[C@]3(O)C2)[C@H](O)[C@H](O)[C@H]1O [OUABAIN]
pIC50: < 3.00

CNCC(O)c1ccc(O)cc1 (configuration not stated) [OXEDRINE]
pIC50: < 3.00

CN(C(=O)CN(CCO)CC(=O)N(C)C(C)(C)Cc1ccccc1)C(C)(C)Cc1ccccc1 [OXETHAZAINE]
pIC50: > 5.00

CCCOc1ccc2nc(NC(=O)OC)[nH]c2c1 [OXIBENDAZOLE]
pIC50: < 3.00

C=CCOc1ccccc1OCC(O)CNC(C)C (configuration not stated) [OXPRENOLOL]
pIC50: < 3.00

Oc1cccc2cccnc12 [OXYQUINOLINE]
pIC50: < 3.00

CC(C)(CO)[C@@H](O)C(=O)NCCC(=O)O [PANTOTHENIC ACID]
pIC50: < 3.00

COc1ccc(Cc2nccc3cc(OC)c(OC)cc23)cc1OC [PAPAVERINE]
pIC50: > 5.00

CCCCc1ccc2[nH]c(NC(=O)OC)nc2c1 [PARBENDAZOLE]
pIC50: < 3.00

Fc1ccc([C@@H]2CCNC[C@H]2COc2ccc3c(c2)OCO3)cc1 [PAROXETINE HYDROCHLORIDE]
pIC50: 4.16

N=C(N)c1ccc(OCCCCCOc2ccc(C(=N)N)cc2)cc1 [PENTAMIDINE]
pIC50: < 3.00

C1CCc2nnnn2CC1 [PENTYLENETETRAZOL]
pIC50: < 3.00

C1CCC(C(CC2CCCCN2)C2CCCCC2)CC1 (configuration not stated) [PERHEXILINE]
pIC50: 4.84

OCCN1CCN(CCCN2c3ccccc3Sc3ccc(Cl)cc32)CC1 [PERPHENAZINE]
pIC50: 4.46

NC(=O)NC(=O)Cc1ccccc1 [PHENACEMIDE]
pIC50: < 3.00

NNCCc1ccccc1 [PHENELZINE]
pIC50: < 3.05

CC(Oc1ccccc1)C(=O)N[C@@H]1C(=O)N2[C@@H]1SC(C)(C)[C@@H]2C(=O)O (some centres not stated) [PHENETHICILLIN]
pIC50: > 5.00

[H]/N=C(/N)N/C(=N/[H])NCCc1ccccc1 [PHENFORMIN]
pIC50: < 3.00

CN(C)CCC(c1ccccc1)c1ccccn1 (configuration not stated) [PHENIRAMINE MALEATE]
pIC50: < 3.00

CN1C(=O)CC(c2ccccc2)C1=O (configuration not stated) [PHENSUXIMIDE]
pIC50: < 3.00

CC(N/C(=N\C#N)Nc1ccncc1)C(C)(C)C (configuration not stated) [PINACIDIL ANHYDROUS]
pIC50: 3.79

CCc1ccc(CCOc2ccc(CC3SC(=O)NC3=O)cc2)nc1 (configuration not stated) [PIOGLITAZONE]
pIC50: 6.58

CCN1CCN(C(=O)N[C@@H](C(=O)N[C@@H]2C(=O)N3[C@@H]2SC(C)(C)[C@@H]3C(=O)O)c2ccccc2)C(=O)C1=O [PIPERACILLIN]
pIC50: 3.70

CCCCOCCOCCOCc1cc2c(cc1CCC)OCO2 [PIPERONYL BUTOXIDE]
pIC50: > 5.00

CN1CCN(CC(=O)N2c3ccccc3C(=O)Nc3cccnc32)CC1 [PIRENZEPINE]
pIC50: < 3.00

NS(=O)(=O)c1cc(C(=O)O)cc(N2CCCC2)c1Oc1ccccc1 [PIRETANIDE]
pIC50: < 3.10

C[n+]1ccccc1/C=N/O [PRALIDOXIME]
pIC50: < 3.00

O=C(C1CCCCC1)N1CC(=O)N2CCc3ccccc3C2C1 (configuration not stated) [PRAZIQUANTEL]
pIC50: 4.22

COc1cc2nc(N3CCN(C(=O)c4ccco4)CC3)nc(N)c2cc1OC [PRAZOSIN]
pIC50: 3.76

COc1cc(NC(C)CCCN)c2ncccc2c1 (configuration not stated) [PRIMAQUINE]
pIC50: 4.27

CCCC(C(=O)OCCN(CC)CC)(c1ccccc1)c1ccccc1 [PROADIFEN]
pIC50: > 4.88

CCCN(CCC)S(=O)(=O)c1ccc(C(=O)O)cc1 [PROBENECID]
pIC50: 3.23

CCCc1c2oc(C(=O)O)cc(=O)c2cc2c(=O)cc(C(=O)O)oc12 [PROBICROMIL]
pIC50: < 3.00

CC(C)(Sc1cc(C(C)(C)C)c(O)c(C(C)(C)C)c1)Sc1cc(C(C)(C)C)c(O)c(C(C)(C)C)c1 [PROBUCOL]
pIC50: < 3.00

CCN(CC)CCOC(=O)c1ccc(N)cc1 [PROCAINE]
pIC50: < 3.00

CCCc1c2c(cc3c(=O)cc(C(=O)O)oc13)CCCC2 [PROCROMIL]
pIC50: 3.22

CCCNCC(O)COc1ccccc1C(=O)CCc1ccccc1 (configuration not stated) [PROPAFENONE]
pIC50: 4.27

CC(C)[N+](C)(CCOC(=O)C1c2ccccc2Oc2ccccc21)C(C)C [PROPANTHELINE BROMIDE]
pIC50: 3.54

CC(Cc1ccc2c(c1)OCO2)NCC(O)c1ccc(O)c(O)c1 (configuration not stated) [PROTOKYLOL HYDROCHLORIDE]
pIC50: < 3.01

CNCCCC1c2ccccc2C=Cc2ccccc21 [PROTRIPTYLINE]
pIC50: 3.89

CCCc1c2c(c(O)c3c(=O)cc(C(=O)O)oc13)CCCC2 [PROXICROMIL]
pIC50: 4.52

CN(C)C(=O)Oc1ccc[n+](C)c1 [PYRIDOSTIGMINE BROMIDE]
pIC50: < 3.00

COc1ccc(CN(CCN(C)C)c2ccccn2)cc1 [PYRILAMINE]
pIC50: < 3.00

CCc1nc(N)nc(N)c1-c1ccc(Cl)cc1 [PYRIMETHAMINE]
pIC50: 3.70

CN1CC[C@@]2(C)c3cc(OC(=O)N4CCc5ccccc5C4)ccc3N(C)[C@@H]12 [QUILOSTIGMINE]
pIC50: > 5.00

CCN(CC)CCCC(C)Nc1c2ccc(Cl)cc2nc2ccc(OC)cc12 (configuration not stated) [QUINACRINE]
pIC50: 4.00

C=C[C@H]1C[N@@]2CC[C@H]1C[C@H]2[C@H](O)c1ccnc2ccc(OC)cc12 [QUININE]
pIC50: 4.01

COc1cc(Nc2ncc(F)c(Nc3ccc4c(n3)NC(=O)C(C)(C)O4)n2)cc(OC)c1OC [R-406]
pIC50: 3.71

C[C@H](NCc1ccc(OCc2ccccc2F)cc1)C(N)=O [RALFINAMIDE]
pIC50: 3.76

O=C(O)CCn1c2c(c3ccccc31)C[C@H](NS(=O)(=O)c1ccc(F)cc1)CC2 [RAMATROBAN]
pIC50: 4.20

CCC(=O)NCC[C@@H]1CCc2ccc3c(c21)CCO3 [RAMELTEON]
pIC50: 4.07

CC(Cc1ccccc1)(NC(=O)CN)c1ccccc1 (configuration not stated) [REMACEMIDE]
pIC50: 3.54

CCN1CCC[C@H]1CNC(=O)c1c(OC)ccc(Br)c1OC [REMOXIPRIDE]
pIC50: > 5.00

COC(=O)[C@H]1[C@H]2C[C@@H]3c4[nH]c5cc(OC)ccc5c4CCN3C[C@H]2C[C@@H](OC(=O)c2cc(OC)c(OC)c(OC)c2)[C@@H]1OC [RESERPINE]
pIC50: > 5.00

Nc1nc2ccc(OC(F)(F)F)cc2s1 [RILUZOLE]
pIC50: 3.86

Cc1c(C(=O)NN2CCCCC2)nn(-c2ccc(Cl)cc2Cl)c1-c1ccc(Cl)cc1 [RIMONABANT]
pIC50: > 5.00

CS(=O)(=O)c1ccc(C2=C(c3ccccc3)C(=O)OC2)cc1 [ROFECOXIB]
pIC50: 4.02

CCCN1CCCC[C@H]1C(=O)Nc1c(C)cccc1C [ROPIVACAINE]
pIC50: 3.19

O=C(O)c1c(Cl)c(Cl)c(Cl)c(Cl)c1-c1c2cc(I)c(=O)c(I)c-2oc2c(I)c(O)c(I)cc12 [ROSE BENGAL SODIUM]
pIC50: > 5.00

O=[N+]([O-])c1cc([As](=O)(O)O)ccc1O [ROXARSONE]
pIC50: < 3.00

O=C(O)CCCCCCCNC(=O)c1ccccc1O [SALCAPROZIC ACID]
pIC50: < 3.12

OCc1ccccc1O[C@@H]1O[C@H](CO)[C@@H](O)[C@H](O)[C@H]1O [SALICIN]
pIC50: < 3.00

NC(=O)c1ccccc1O [SALICYLAMIDE]
pIC50: < 3.00

O=C(Oc1ccccc1C(=O)O)c1ccccc1O [SALSALATE]
pIC50: < 3.00

CN1[C@@H]2C[C@@H](OC(=O)[C@H](CO)c3ccccc3)C[C@H]1[C@@H]1O[C@@H]12 [SCOPOLAMINE]
pIC50: < 3.00

CCN(CC)CCNC(=O)c1ccc(NS(C)(=O)=O)cc1 [SEMATILIDE]
pIC50: < 3.00

CC1=C(C)C(=O)C(C(CCCCCC(=O)O)c2ccccc2)=C(C)C1=O (configuration not stated) [SERATRODAST]
pIC50: > 4.84

CN[C@H]1CC[C@@H](c2ccc(Cl)c(Cl)c2)c2ccccc21 [SERTRALINE]
pIC50: 4.53

O=c1[nH]c2c(O)ccc(CCNCCS(=O)(=O)CCCOCCc3ccccc3)c2s1 [SIBENADET]
pIC50: > 5.00

CO[C@H]1C[C@@H]2CC[C@@H](C)[C@@](O)(O2)C(=O)C(=O)N2CCCC[C@H]2C(=O)O[C@H]([C@H](C)C[C@@H]2CC[C@@H](O)[C@H](OC)C2)CC(=O)[C@H](C)/C=C(\C)[C@@H](O)[C@@H](OC)C(=O)[C@H](C)C[C@H](C)/C=C/C=C/C=C/1C [SIROLIMUS]
pIC50: > 5.00

N[C@@H](CC(=O)N1CCn2c(nnc2C(F)(F)F)C1)Cc1cc(F)c(F)cc1F [SITAGLIPTIN]
pIC50: 3.83

CNC(=O)c1cc(Oc2ccc(NC(=O)Nc3ccc(Cl)c(C(F)(F)F)c3)cc2)ccn1 [SORAFENIB]
pIC50: > 5.00
